{"source": "patent US10954255B2", "about": "“Phospholipid analogues” (Karl-Franzens-Universitaet Graz, priority 2018, dated 2021)", "key": {"[1]": {"test_system": "human pulmonary artery endothelial monolayers", "assay": "Endothelial monolayer permeability, transendothelial electrical resistance (TER)", "type": "cell-based", "conditions": "for endothelial barrier-protective effect compared with free iloprost (TER): 0.5 μM, post-treatment 15 min or 5 hrs after LPS 200 ng/ml, monitored over 20 hours, FIG. 4", "protocol": "The cellular barrier properties were analyzed by measurements of transendothelial electrical resistance (TER) across confluent human pulmonary artery endothelial monolayers using an electrical cell-substrate impedance sensing system (Applied Biophysics, USA) as previously described (Birukova A A et al., Am. J. Physiol. Lung Cell. Mol. Physiol. 2006, 290(3):L540-548; Birukova A A et al. FASEB J. 2004, 18(15):1879-1890)."}, "[2]": {"test_system": "Human ECs (HUVECs and HUVECtert)", "assay": "Cell survival test, serum deprivation", "type": "cell-based", "conditions": "M199 without serum, 24 to 49 hrs, FIG. 6-8", "protocol": "Human ECs (HUVECs and HUVECtert) were cultured Nunclon™ Delta surface flasks (Bartelt; Graz, Austria) in the medium M199 (Gibco) supplemented with 20% fetal calf serum (FCS, Gibco; Carlsbad, Calif., USA), penicillin-streptomycin-amphotericin B (PSF, Lonza; Basel, Switzerland), glutamine (Lonza) and ECGS-heparin (PromoCell; Heidelberg, Germany) in the 95% humidified atmosphere with 5% CO2 at 37° C. For stimulation of cells, they were seeded in the same medium in 96-well Nunclon™ Delta plates (Bartelt). On the day 2, the full medium was exchanged to M199 medium without serum but containing lipids (100 μl per well). In experiments on cell survival against hydrogen peroxide, camptothecin or doxorubicin, the full medium was exchanged to M199 containing 7% FCS and OxPAPC at 40 μg/ml or 50 μg/ml added as a two-fold concentrated solution (50 μl per well). After 20 to 30 min preincubation, toxic agents were added also as two-fold concentrated solutions in M199/7% FCS (50 μl per well). After 16 to 72 hrs of cell incubation at 37° C. and 5% CO2 in 95% humidity, either a nuclei counting of the remained cells or an XTT assay were performed. For the nuclei counting, the medium containing dead cells was aspirated and a Hoechst 33342 solution at the concentration of 1 μg/ml in PBS containing Ca^2+ and Mg^2+ (50 μl per well) was added. After at least 20 min incubation of cells at 37° C. in the cell culture incubator, the stained nuclei were counted using the EnSight plate reader (Perkin-Elmer; Waltham, Mass., USA). An XTT assay with the incubation time of 2 hrs was performed as described (Oskolkova, Godschachner and Bochkov, Inflammation 2017; 40(2): 530-536).\nOxPLs protect endothelial cells (ECs) against serum deprivation. ECs were seeded in full M199 medium containing 20% serum. On the day 2, the medium was exchanged to M199 without serum and containing phospholipids at increasing concentrations. After 48 hrs, nuclei of remaining cells were stained by Hoechst and counted. Cells treated with 20% FCS serve as positive and with PBS as negative controls, respectively.\nECs were treated as described in Example 13. After 24 hrs, nuclei of remaining cells were stained by Hoechst 33342 and counted. Cells treated with OxPAPC and 20% FCS serve as positive and with PBS as negative controls, respectively.\nECs were treated with increasing concentrations of OxAA as described in Example 13. After 49 hrs, nuclei of remaining cells were stained by Hoechst 33342 and counted. Cells treated with 20% FCS or with 20 μM OxPAPC serve as positive and with PBS as negative controls, respectively."}, "[3]": {"test_system": "LPS-induced chemokine KC", "assay": "Induction of chemokine KC in plasma of mice injected with LPS", "type": "in vivo", "conditions": "phospholipid 200 μg/mouse i.p. with LPS 20 μg/mouse, blood after 2 and 4 hrs, FIG. 2", "protocol": "Experiments were performed according to Austrian animal rights law using female C57BL/6J mice (Jackson Laboratories, Germany) of 20 g body weight. Mice were injected i.p. with 200 μl of either with saline, phospholipid (200 μg/mouse), LPS (Escherichia coli O55:B5, 20 μg/mouse) or a combination of LPS and the phospholipid. After 2 and 4 hrs blood was taken retroorbitaly and placed into Eppendorf tubes containing EDTA. After centrifugation of cells, plasma was collected and analyzed by ELISA for murine KC."}, "[4]": {"test_system": "LPS-induced lung injury", "assay": "LPS-induced lung injury and vascular barrier dysfunction in mice (BAL, TNFα, optical imaging)", "type": "in vivo", "conditions": "10 μg/kg i.v. concurrently and 5 hrs after LPS i.t., day 1 and day 3, FIG. 5", "protocol": "Eight-week old C57B1 mice were purchased from Jackson Laboratories (Bar Harbor, USA). Animals were handled according to the National Institutes of Health Guide for the Care and Use of Laboratory Animals. Bacterial lipopolysaccharide (LPS, 0.63 mg/kg body wt; Escherichia coli O55:B5) or sterile water was injected intratracheally in a small volume (20-30 μl) using a 20-gauge catheter (Exelint International, USA). Iloprost (10 μg/kg), ILO-PC (10 μg/kg) or sterile saline solution was administrated concurrently and 5 hrs after LPS instillation by intravenous injection in the external jugular vein. Animals were sacrificed at day-1 or day-3 by exsanguination under anesthesia. BAL was performed using 1 ml of sterile Hanks balanced salt buffer and measurements of cell count and protein concentration were conducted as previously described (Fu P et al., Eur. Respir. J. 2009, 33:612-624). […]\nIn vivo optical imaging: Mice were injected with 100 μl of 2 nmol Angiosense 680 EX (a vascular fluorescent blood pool imaging agent purchased from PerkinElmer, USA), intravenously via tail vein. Fluorescence optical imaging was performed in the Integrated Small Animal Imaging Research Resource (iSAIRR) at the University of Chicago using Xenogen IVIS 200 Spectrum (Caliper Life Sciences, USA). […]"}}, "note": "Entries after “also recorded” stand apart in the source; their conditions may differ."}
{"smiles": "CCCCCCCCCCCCCCCCOCC(COP(=O)(O)OCC[N+](C)(C)C)NC(=O)CCC/C=C\\C[C@H]1C(=O)C[C@@H](O)[C@@H]1/C=C/[C@@H](O)CCCCC", "note": "(stereo partly shown) [KFU-PGE2, 1-O-Hexadecyl-2-deoxy-2-(prostaglandin E2)amino-sn-glycero-3-phosphocholine]", "values": [{"measurement": "endothelial barrier protection/enhancement (TER)", "setting": "[1]; cultured endothelial cells, two concentrations, FIG. 3", "value": "protects endothelial cell barrier"}, {"measurement": "protection of ECs against serum deprivation (nuclei counting, Hoechst 33342)", "setting": "[2]", "value": "protective effects"}, {"measurement": "induction of inflammatory chemokine KC in plasma (LPS-induced inflammation in vivo)", "setting": "[3]", "value": "inhibits induction of inflammatory chemokine KC"}]}
{"smiles": "CCCCCCCCCCCCCCCCOCC(COP(=O)(O)OCC[N+](C)(C)C)NC(=O)CCC/C=C\\C[C@@H]1[C@@H](/C=C/[C@@H](O)CCCCC)[C@H](O)C[C@@H]1O", "note": "(stereo partly drawn) [KFU-PGF2α, 1-O-Hexadecyl-2-deoxy-2-(prostaglandin F2α)amino-sn-glycero-3-phosphocholine]", "values": [{"measurement": "protection of ECs against serum deprivation (nuclei counting, Hoechst 33342)", "setting": "[2]", "value": "protective effects"}]}
{"smiles": "CCCCCCCCCCCCCCCCOCC(COP(=O)(O)OCC[N+](C)(C)C)NC(=O)CCC/C=C\\C[C@@H]1C(=O)C=C[C@@H]1/C=C/[C@@H](O)CCCCC", "note": "(stereo partly shown) [KFU-iPGA2, 1-O-Hexadecyl-2-deoxy-2-(8-iso-prostaglandin A2)amino-sn-glycero-3-phosphocholine]", "values": [{"measurement": "protection of ECs against serum deprivation (nuclei counting, Hoechst 33342)", "setting": "[2]; listed as iPGA2-NH-PC", "value": "protective effects; also recorded: protect ECs against serum deprivation"}]}
{"smiles": "CC#CCC(C)[C@H](O)/C=C/[C@@H]1C2C/C(=C/CCCC(=O)NC(COCCCCCCCCCCCCCCCC)COP(=O)(O)OCC[N+](C)(C)C)CC2C[C@H]1O", "note": "(stereo partly shown) [KFU-iloprost, 1-O-Hexadecyl-2-deoxy-2-(iloprost)amino-sn-glycero-3-phosphocholine]", "values": [{"measurement": "protection from LPS-induced lung injury, barrier dysfunction and edema compared with free iloprost", "setting": "[4]", "value": "better protection from edema in vivo as compared to free molecule"}, {"measurement": "protection from LPS-induced lung injury, barrier dysfunction and edema compared with free iloprost", "setting": "[4]; listed as KFU-ILO", "value": "better protective response on LPS-induced lung injury and barrier dysfunction compared to a free molecule"}, {"measurement": "endothelial barrier-protective effect compared with free iloprost (TER)", "setting": "[1]", "value": "stronger endothelial barrier-protective effect than free Iloprost"}, {"measurement": "endothelial barrier-protective effect compared with free iloprost (TER)", "setting": "[1]; listed as KFU-conjugated iloprost", "value": "stronger and more prolonged barrier-protective activity as compared to free iloprost"}]}
{"smiles": "CCCCC[C@H](O)/C=C/[C@H]1C=CC(=O)[C@H]1C/C=C\\CCCC(=O)O", "note": "[iPGA2, 8-iso-prostaglandin A2, reference compound]", "values": [{"measurement": "protection of ECs against serum deprivation (nuclei counting, Hoechst 33342)", "setting": "[2]", "value": "not active; also recorded: not protective"}]}
